In ChEMBL document CHEMBL1201862, “PubChem BioAssay data set” (2004):
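Following 48 hours of exposure in 96-well plates, responses at five concentrations were used to interpolate endpoints linearly. GI50 = concentration required for 50% inhibition of growth.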 Calls of active or inactive are those of the source. Rule as the data show it: active = GI50 up to about 1.1 µM and inactive = higher.

Key:
Assay in all cases: NCI anticancer screen, dose series, 48 h
NCI/ADR-RES = tested on: NCI/ADR-RES
MOLT-4 = tested on: MOLT-4
OVCAR-5 = tested on: OVCAR-5
HCC 2998 = tested on: HCC 2998
SF-539 = tested on: SF-539
RXF 393 = tested on: RXF 393
UACC-62 = tested on: UACC-62
DU-145 = tested on: DU-145
MDA-MB-231 = tested on: MDA-MB-231
NCI-H522 = tested on: NCI-H522
CAKI-1 = tested on: CAKI-1
OVCAR-4 = tested on: OVCAR-4
Malme-3M = tested on: Malme-3M
SF-295 = tested on: SF-295
786-0 = tested on: 786-0
RPMI-8226 = tested on: RPMI-8226
PC-3 = tested on: PC-3
HCT-116 = tested on: HCT-116

Measured: GI50

C=C1C(=O)OC2C1CCC(=C)C1CC(O)C(=C)C12 (centres undefined)
inactive: NCI/ADR-RES 24 µM | MOLT-4 8.38 µM | OVCAR-5 11.5 µM | HCC 2998 14.3 µM | SF-539 16.9 µM | RXF 393 13.1 µM | UACC-62 13.5 µM | DU-145 15 µM | MDA-MB-231 16.3 µM | NCI-H522 2.58 µM | CAKI-1 4.28 µM | OVCAR-4 16.2 µM | Malme-3M 14.3 µM | SF-295 38.5 µM | 786-0 5.5 µM | RPMI-8226 5.78 µM | PC-3 13.4 µM | HCT-116 12.7 µM

O=C(CCCCCCCCC(=O)N1C(=O)CC(=O)N(c2ccc(Cl)cc2)C1=S)N1C(=O)CC(=O)N(c2ccc(Cl)cc2)C1=S
inactive: NCI/ADR-RES 24.5 µM | MOLT-4 19.8 µM | OVCAR-5 > 100 µM | HCC 2998 38.9 µM | SF-539 > 100 µM | RXF 393 > 100 µM | UACC-62 15.5 µM | DU-145 > 100 µM | MDA-MB-231 70.8 µM | NCI-H522 29 µM | CAKI-1 > 100 µM | OVCAR-4 41.6 µM | Malme-3M > 100 µM | SF-295 33 µM | 786-0 67.9 µM | RPMI-8226 30.6 µM | PC-3 57.1 µM | HCT-116 48.5 µM

O=C(O)c1cc(/N=N/c2ccc([N+](=O)[O-])cc2)ccc1O
inactive: NCI/ADR-RES 30.8 µM | MOLT-4 24.8 µM | OVCAR-5 30.3 µM | HCC 2998 18.7 µM | SF-539 33.3 µM | RXF 393 42.3 µM | UACC-62 31.3 µM | DU-145 38.3 µM | MDA-MB-231 26.9 µM | NCI-H522 28 µM | CAKI-1 29.2 µM | OVCAR-4 23.9 µM | Malme-3M 42.6 µM | SF-295 32.3 µM | 786-0 34.3 µM | RPMI-8226 21.1 µM | PC-3 33.7 µM | HCT-116 30.5 µM

O=C1NC(=S)N/C1=C\c1cccs1
inactive: NCI/ADR-RES > 100 µM | MOLT-4 > 100 µM | OVCAR-5 > 100 µM | HCC 2998 > 100 µM | SF-539 > 100 µM | RXF 393 > 100 µM | UACC-62 > 100 µM | DU-145 > 100 µM | MDA-MB-231 > 100 µM | NCI-H522 > 100 µM | CAKI-1 > 100 µM | OVCAR-4 > 100 µM | Malme-3M > 100 µM | SF-295 > 100 µM | 786-0 > 100 µM | RPMI-8226 > 100 µM | PC-3 > 100 µM | HCT-116 > 100 µM

CNC(=O)[C@H](Cc1ccccc1)NC(=O)N(CCC#N)CCN(C(=O)N[C@@H](Cc1ccccc1)C(=O)OC)c1ccccc1
inactive: NCI/ADR-RES > 100 µM | MOLT-4 > 100 µM | OVCAR-5 > 100 µM | HCC 2998 > 10 µM | SF-539 > 100 µM | RXF 393 > 100 µM | UACC-62 > 100 µM | DU-145 > 100 µM | MDA-MB-231 > 100 µM | NCI-H522 > 100 µM | CAKI-1 > 100 µM | OVCAR-4 > 100 µM | Malme-3M > 100 µM | SF-295 > 100 µM | 786-0 > 100 µM | RPMI-8226 > 100 µM | PC-3 > 100 µM | HCT-116 > 100 µM

C=C1C2CC[C@@](C)(O)C2[C@H]2OC(=O)C(=C)[C@@H]2C[C@H]1O (some centres undefined)
inactive: NCI/ADR-RES 18.8 µM | MOLT-4 14.7 µM | OVCAR-5 29 µM | HCC 2998 19.1 µM | SF-539 14.2 µM | RXF 393 22.1 µM | UACC-62 16 µM | DU-145 15.5 µM | MDA-MB-231 18.8 µM | NCI-H522 14.7 µM | CAKI-1 12.1 µM | OVCAR-4 14.9 µM | Malme-3M 15.2 µM | SF-295 54.6 µM | 786-0 16.1 µM | RPMI-8226 13.1 µM | PC-3 34.4 µM | HCT-116 27 µM

COc1nc(N=P(c2ccccc2)(c2ccccc2)c2ccccc2)cc(=O)[nH]1
inactive: NCI/ADR-RES > 100 µM | MOLT-4 > 100 µM | OVCAR-5 > 100 µM | HCC 2998 > 100 µM | SF-539 > 100 µM | RXF 393 > 100 µM | UACC-62 > 100 µM | DU-145 > 100 µM | MDA-MB-231 > 100 µM | NCI-H522 > 100 µM | CAKI-1 > 100 µM | OVCAR-4 > 100 µM | Malme-3M > 100 µM | SF-295 > 100 µM | 786-0 > 100 µM | RPMI-8226 > 100 µM | PC-3 > 100 µM | HCT-116 > 100 µM

COCCCNC(=O)C1=C(C)NC(C)=C(C(=O)NCCCOC)C1
inactive: NCI/ADR-RES > 100 µM | MOLT-4 > 100 µM | OVCAR-5 > 100 µM | HCC 2998 > 100 µM | SF-539 > 100 µM | RXF 393 > 100 µM | UACC-62 > 100 µM | DU-145 > 100 µM | MDA-MB-231 > 100 µM | NCI-H522 9.23 µM | CAKI-1 > 100 µM | OVCAR-4 > 100 µM | Malme-3M 18.1 µM | SF-295 > 100 µM | 786-0 > 100 µM | RPMI-8226 > 100 µM | PC-3 > 100 µM | HCT-116 > 100 µM

COc1cc(OC)c(-c2cc(=O)c3c(OC)c(OC)c(OC)c(OC)c3o2)cc1OC
inactive: NCI/ADR-RES 21.9 µM | MOLT-4 22.2 µM | OVCAR-5 > 100 µM | HCC 2998 > 100 µM | SF-539 > 100 µM | RXF 393 12.7 µM | UACC-62 29.6 µM | DU-145 > 100 µM | MDA-MB-231 19.8 µM | NCI-H522 17.7 µM | CAKI-1 36.1 µM | OVCAR-4 > 90.8 µM | Malme-3M > 100 µM | SF-295 28.1 µM | 786-0 > 69.3 µM | RPMI-8226 > 20.1 µM | PC-3 88.1 µM | HCT-116 > 100 µM

O=C(NCc1ccccc1Cl)c1c(O)c2ccccc2[nH]c1=O
inactive: NCI/ADR-RES 12.2 µM | MOLT-4 > 100 µM | OVCAR-5 > 100 µM | HCC 2998 33.3 µM | SF-539 > 100 µM | RXF 393 21.2 µM | DU-145 > 100 µM | MDA-MB-231 18.6 µM | NCI-H522 > 100 µM | CAKI-1 22.7 µM | OVCAR-4 8.53 µM | Malme-3M > 100 µM | SF-295 33.4 µM | 786-0 16.8 µM | RPMI-8226 57.8 µM | PC-3 64.9 µM | HCT-116 27.2 µM

Cn1nc(-c2ccccc2)nc1[N+](=O)[O-]
inactive: NCI/ADR-RES > 10 µM | MOLT-4 > 10 µM | OVCAR-5 > 10 µM | HCC 2998 > 10 µM | SF-539 > 10 µM | RXF 393 > 10 µM | UACC-62 > 10 µM | DU-145 > 10 µM | MDA-MB-231 > 10 µM | NCI-H522 > 10 µM | CAKI-1 > 10 µM | OVCAR-4 > 10 µM | Malme-3M > 10 µM | SF-295 > 10 µM | 786-0 > 10 µM | RPMI-8226 > 10 µM | PC-3 > 10 µM | HCT-116 > 10 µM

Cn1cncc1CC1COC(=O)C1C(O)c1ccccc1 (centres undefined)
inactive: NCI/ADR-RES > 100 µM | MOLT-4 > 100 µM | OVCAR-5 > 100 µM | HCC 2998 > 100 µM | SF-539 > 100 µM | RXF 393 > 100 µM | UACC-62 > 100 µM | DU-145 > 100 µM | MDA-MB-231 > 100 µM | NCI-H522 > 100 µM | CAKI-1 > 100 µM | OVCAR-4 > 100 µM | Malme-3M > 100 µM | SF-295 > 100 µM | 786-0 > 100 µM | RPMI-8226 > 100 µM | PC-3 > 100 µM | HCT-116 > 100 µM

CC(=O)N1C2=CCCC2(C)c2ccccc21 (centres undefined)
inactive: NCI/ADR-RES 57.5 µM | MOLT-4 62.8 µM | OVCAR-5 > 100 µM | HCC 2998 26.5 µM | SF-539 > 100 µM | RXF 393 > 100 µM | UACC-62 80.4 µM | DU-145 > 100 µM | MDA-MB-231 > 100 µM | NCI-H522 26.8 µM | CAKI-1 > 100 µM | OVCAR-4 77.6 µM | Malme-3M 67.5 µM | SF-295 > 100 µM | 786-0 > 100 µM | RPMI-8226 10.7 µM | PC-3 52.4 µM | HCT-116 37.1 µM

CCCN(CCC)C(=S)N/N=C(/C)c1ccccc1O
inactive: NCI/ADR-RES 1.57 µM | MOLT-4 4.04 µM | OVCAR-5 10.3 µM | HCC 2998 10.3 µM | SF-539 4.06 µM | RXF 393 23.6 µM | UACC-62 3.19 µM | DU-145 6.84 µM | MDA-MB-231 9.4 µM | NCI-H522 1.19 µM | CAKI-1 8.49 µM | OVCAR-4 5.96 µM | Malme-3M 3.2 µM | SF-295 6.41 µM | 786-0 3.32 µM | RPMI-8226 4.33 µM | PC-3 5.94 µM | HCT-116 4.04 µM

Cc1cccc(C(=O)O)c1CC1NCCC2c3ccccc3NC12 (centres undefined)
inactive: NCI/ADR-RES > 100 µM | MOLT-4 > 100 µM | OVCAR-5 > 100 µM | HCC 2998 > 100 µM | SF-539 > 100 µM | RXF 393 > 100 µM | UACC-62 > 100 µM | DU-145 > 100 µM | MDA-MB-231 > 100 µM | NCI-H522 > 100 µM | CAKI-1 > 100 µM | OVCAR-4 > 100 µM | Malme-3M > 100 µM | SF-295 > 100 µM | 786-0 > 100 µM | RPMI-8226 > 100 µM | PC-3 > 100 µM | HCT-116 > 100 µM
